Laboratory results taken from patent US10301295B2, “Herbicidal compounds” (Syngenta Participations AG, priority 2014, dated 2019).
Read-outs that look alike come from different tables or passages of the source.

What was measured:
Format in all cases: in vivo
[1] = system: Alopecurus myosuroides (ALOMY); assay: Glasshouse assay for herbicidal activity, pre-/post-emergence (percentage phytotoxicity); details: Alopecurus myosuroides, Rate 250 g/ha, 100%=total damage, 0%=no damage
How it was run: (§1)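 Pre- and post-emergence treatments were applied to potted plants at 1 and ~12 days after sowing respectively. Percentage phytotoxicity was judged visually 20 or 15 days later.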

[2] = system: Avena fatua (AVEFA); assay: as above; details: Avena fatua, Rate 250 g/ha, 100%=total damage, 0%=no damage
How it was run: as §1

[3] = system: Echinochloa crus-galli (ECHCG); assay: as above; details: Echinochloa crus-galli, Rate 250 g/ha, 100%=total damage, 0%=no damage
How it was run: as §1

[4] = system: Lolium perenne (LOLPE); assay: as above; details: Lolium perenne, Rate 250 g/ha, 100%=total damage, 0%=no damage
How it was run: as §1

[5] = system: wheat; assay: Post-emergence herbicidal activity against cereal crops (wheat) +/- safener, crop selectivity; details: 100%=total damage to plant, 0%=no damage; for Post-emergence herbicidal activity against wheat (percentage phytotoxicity), +CQC: 250 g/ha, plus safener cloquintocet-mexyl (CQC) applied at 50 g/ha; for percent phytotoxicity (crop damage) to wheat at 250 g/ha: Triticum aestivum, 360 h, without safener, read-out: Post-emergence herbicidal activity against wheat (percentage phytotoxicity), Wheat - CQC
How it was run: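 Test plants raised in pots in a glasshouse (24/18 °C warm or 20/16 °C cool species day/night, 16 h light, 65% humidity) and treated post-emergence about 12 days after sowing. Visual percentage phytotoxicity scored 15 days after application (0% = no damage, 100% = total damage).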

[6] = 360 h, post-emergence, visual assessment 15 DAA, read-out: Post-emergence herbicidal activity (percentage phytotoxicity), ALOMY POST
[7] = 480 h, pre-emergence, visual assessment 20 DAA, read-out: Pre-emergence herbicidal activity (percentage phytotoxicity), ALOMY PRE
[8] = post-emergence, 360 h, post-emergence, visual assessment 15 DAA, read-out: Post-emergence herbicidal activity (percentage phytotoxicity), AVEFA POST
[9] = pre-emergence, 480 h, pre-emergence, visual assessment 20 DAA, read-out: Pre-emergence herbicidal activity (percentage phytotoxicity), AVEFA PRE
[10] = post-emergence, 360 h, post-emergence, visual assessment 15 DAA, read-out: Post-emergence herbicidal activity (percentage phytotoxicity), ECHCG POST
[11] = pre-emergence, 480 h, pre-emergence, visual assessment 20 DAA, read-out: Pre-emergence herbicidal activity (percentage phytotoxicity), ECHCG PRE
[12] = post-emergence, 360 h, post-emergence, visual assessment 15 DAA, read-out: Post-emergence herbicidal activity (percentage phytotoxicity), LOLPE POST
[13] = pre-emergence, 480 h, pre-emergence, visual assessment 20 DAA, read-out: Pre-emergence herbicidal activity (percentage phytotoxicity), LOLPE PRE

SMILES | pest or weed control at 250 g/ha [1, 6] [%] | pest or weed control at 250 g/ha [1, 7] [%] | pest or weed control at 250 g/ha [2, 8] [%] | pest or weed control at 250 g/ha [2, 9] [%] | pest or weed control at 250 g/ha [3, 10] [%] | pest or weed control at 250 g/ha [3, 11] [%] | pest or weed control at 250 g/ha [4, 12] [%] | pest or weed control at 250 g/ha [4, 13] [%] | Post-emergence herbicidal activity against wheat (percentage phytotoxicity), +CQC [5] [%] | percent phytotoxicity (crop damage) to wheat at 250 g/ha [5] [%]
Cc1cc(C)c(C2C(=O)CC(CCNC(=O)NO)C2=O)c(C)c1 (stereo not shown) [Compound A26] | 10 | 0 | 0 | 0 | 10 | 0 | 40 | 0 | 10 | 0
Cc1cc(-c2ncc(Cl)cc2F)cc(C)c1C1C(=O)CC(CCNC(=O)Nc2ccccn2)C1=O (stereo not shown) [Compound A19] | 90 | 70 | 100 | 90 | 100 | 80 | 100 | 80 | 80 | 80
COc1ccc(S(=O)(=O)NCCC2CC(=O)C(c3c(C)cc(C)cc3C)C2=O)cc1 (stereo not shown) [Compound A79] | 30 | 30 | 60 | 10 | 40 | 50 | 60 | 70 | 0 | 30
Cc1cc(C)c(C2C(=O)CC(CCNc3ccc(C(F)(F)F)cn3)C2=O)c(C)c1 (stereo not shown) [Compound A34] | 90 | 90 | 90 | 80 | 100 | 100 | 90 | 100 | 70 | 80
Cc1cc(C)c(C2C(=O)CC(CCNC(=O)NC(=O)c3cc(F)ccc3C(F)(F)F)C2=O)c(C)c1 (stereo not shown) [Compound A63] | 100 | 90 | 90 | 40 | 80 | 70 | 90 | 80 | 80 | 80
Cc1cc(C)c(C2C(=O)CC(CCNC(=O)NC(=O)c3ccccc3C(F)(F)F)C2=O)c(C)c1 (stereo not shown) [Compound A60] | 100 | 70 | 100 | 80 | 80 | 70 | 90 | 80 | 70 | 80
Cc1cc(C)c(C2C(=O)CC(CCNC(=O)NC(=O)c3ccc(C(F)(F)F)c(F)c3)C2=O)c(C)c1 (stereo not shown) [Compound A61] | 40 | 20 | 0 | 30 | 70 | 30 | 70 | 40 | 40 | 70
Cc1cc(-c2ncc(Cl)cc2F)cc(C)c1C1C(=O)CC(CCNC(=O)NC(C)(C)C)C1=O.Cl (stereo not shown) [Compound A29] | 100 | 90 | 100 | 100 | 100 | 90 | 100 | 100 | 70 | 90
Cc1cc(-n2cc(Cl)cn2)cc(C)c1C1C(=O)CC(CCNC(=O)NC(C)(C)C)C1=O (stereo not shown) [Compound A21] | 90 | 90 | 100 | 90 | 100 | 100 | 90 | 80 | 70 | 90
Cc1cc(C)c(C2C(=O)CC(CCNC(=O)NC(=O)c3ccccn3)C2=O)c(C)c1 (stereo not shown) [Compound A1, N-[2-[2,4-dioxo-3-(2,4,6-trimethylphenyl)cyclopentyl]ethylcarbamoyl]pyridine-2-carboxamide] | 90 | 80 | 90 | 60 | 80 | 100 | 90 | 100 | 20 | 80
Cc1cc(C)c(C2C(=O)CC(CCNC(=O)NC(=O)c3ccc(C(F)(F)F)cc3F)C2=O)c(C)c1 (stereo not shown) [Compound A70] | 20 | 50 | 90 | 40 | 90 | 100 | 100 | 60 | 80 | 80
Cc1cc(-n2cc(Cl)cn2)cc(C)c1C1C(=O)CC(CCNC(=O)NOC(C)(C)C)C1=O (stereo not shown) [Compound A25] | 70 | 30 | 80 | 0 | 90 | 50 | 20 | 30 | 0 | 60
Cc1cc(C)c(C2C(=O)CC(CCNC(=O)Nc3ncccn3)C2=O)c(C)c1 (stereo not shown) [Compound A30] | 90 | 80 | 80 | 80 | 90 | 60 | 80 | 90 | 40 | 70
Cc1cc(C)c(C2C(=O)CC(CCNC(=S)Nc3ccccc3F)C2=O)c(C)c1 (stereo not shown) [Compound A88] | 0 | 0 | 0 | 0 | 0 | 40 | 60 | 40 | 0 | 0
Cc1cc(C)c(C2C(=O)CC(CCNS(=O)(=O)c3ccc(Cl)cc3Cl)C2=O)c(C)c1 (stereo not shown) [Compound A84] | 30 | 50 | 80 | 10 | 50 | 30 | 70 | 50 | 0 | 0
Cc1cc(C)c(C2C(=O)CC(CCNC(=O)N3CCOCC3)C2=O)c(C)c1 (stereo not shown) [Compound A47] | 60 | 60 | 70 | 0 | 60 | 80 | 30 | 50 | 0 | 50
